Source: PubChem BioAssay AID330 (DTP/NCI, 2004)
Values joined by “and” are separate entries in the source; they are usually repeats but may differ in a detail not shown here. Identical values can stand only once. Toxic doses and inconclusive results are not listed. Rule for the calls: active = survival T/C of 150% or more; inactive = T/C below 125% in these data.

Test system: P388 leukemia ip, CD2F1 mice, survival T/C
Assay: NCI In Vivo Anticancer Drug Screen. Data for tumor model P388 Leukemia (intraperitoneal) in CD2F1 (CDF1) mice
Details: endpoint: median survival time, higher = longer survival
Procedure, shortened: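 Mice carrying the transplanted tumor received test compound or vehicle. Survival was recorded in each group, and the value is the treated-group measurement divided by that of the vehicle-treated control group.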

[1] = dose: 60.0 mg/kg/injection, schedule: Q01DX005 (ip), vehicle: saline with Tween-80
[2] = dose: 120.0 mg/kg/injection, schedule: Q01DX005 (ip), vehicle: saline with Tween-80
[3] = dose: 50.0 mg/kg/injection, schedule: Q01DX009 (ip), vehicle: saline with Tween-80
[4] = dose: 100.0 mg/kg/injection, schedule: Q01DX009 (ip), vehicle: saline with Tween-80
[5] = dose: 200.0 mg/kg/injection, schedule: Q01DX009 (ip), vehicle: saline with Tween-80
[6] = dose: 400.0 mg/kg/injection, schedule: Q01DX009 (ip), vehicle: saline with Tween-80
[7] = dose: 100.0 mg/kg/injection, schedule: Q04DX003 (ip), vehicle: saline
[8] = dose: 200.0 mg/kg/injection, schedule: Q04DX003 (ip), vehicle: saline
[9] = dose: 50.0 mg/kg/injection, schedule: Q01DX005 (ip), vehicle: saline with Tween-80
[10] = dose: 100.0 mg/kg/injection, schedule: Q01DX005 (ip), vehicle: saline with Tween-80
[11] = dose: 100.0 mg/kg/injection, schedule: Q01DX009 (ip), vehicle: Klucel (hydroxypropylcellulose) (HPC)
[12] = dose: 200.0 mg/kg/injection, schedule: Q01DX005 (ip), vehicle: saline with Tween-80
[13] = dose: 60.0 mg/kg/injection, schedule: Q01DX005 (ip), vehicle: saline

Measured: T/C

Cc1nnsc1-c1nnc2sc(C(F)(F)F)nn12
inactive: dose: 50.0 mg/kg/injection, schedule: Q04DX002 (ip), vehicle: Klucel (hydroxypropylcellulose) (HPC) 100 % of control | dose: 100.0 mg/kg/injection, schedule: Q04DX002 (ip), vehicle: Klucel (hydroxypropylcellulose) (HPC) 100 % of control | dose: 200.0 mg/kg/injection, schedule: Q04DX002 (ip), vehicle: Klucel (hydroxypropylcellulose) (HPC) 100 % of control

COC(=O)C(=O)C1CCc2c(C(=O)OC)nc3nnc(N)n3c21 (stereo not given)
inactive: [1] 94 % of control | [2] 99 % of control | dose: 240.0 mg/kg/injection, schedule: Q01DX005 (ip), vehicle: saline with Tween-80 87 % of control

Cc1ccc(NC(=O)Oc2ccc(Cl)cc2)c([N+](=O)[O-])c1
inactive: [3] 109 % of control | [4] 100 % of control | [5] 105 % of control

NC(CSCNc1ncnc2c1ncn2C1OC(CO)C(O)C1O)C(=O)O (stereo not given)
inactive: dose: 100.0 mg/kg/injection, schedule: Q04DX002 (ip), vehicle: saline with Tween-80 105 % of control | dose: 200.0 mg/kg/injection, schedule: Q04DX002 (ip), vehicle: saline with Tween-80 105 % of control | dose: 400.0 mg/kg/injection, schedule: Q04DX002 (ip), vehicle: saline with Tween-80 102 % of control

CC(C)(CCl)C(=O)O
inactive: dose: 50.0 mg/kg/injection, schedule: Q01DX009 (ip), vehicle: saline 95 % of control

CCOC(=O)c1nc(C)n2cc([N+](=O)[O-])ccc12
inactive: dose: 2.0 mg/kg/injection, schedule: Q01DX009 (ip), vehicle: saline 86 % of control | dose: 4.0 mg/kg/injection, schedule: Q01DX009 (ip), vehicle: saline 91 % of control | dose: 8.0 mg/kg/injection, schedule: Q01DX009 (ip), vehicle: saline 88 % of control

C=C(C)C(=O)OCCO (tested in a mixture with another compound)
inactive: [4] 100 % of control | [5] 100 % of control | [6] 100 % of control

COc1ccc(C)cc1C(CC(=O)O)CC(=O)N(CCCl)CCCl (stereo not given)
inactive: [7] 102 % of control | [8] 100 % of control | dose: 400.0 mg/kg/injection, schedule: Q04DX003 (ip), vehicle: saline 102 % of control

O=C1C=CC2C=CC1C=C2
inactive: dose: 25.0 mg/kg/injection, schedule: Q01DX005 (ip), vehicle: saline with Tween-80 116 % of control | [9] 104 % of control | [1] 118 % of control | [10] 122 % of control

O=C1CCC(C(=O)N/N=C\C=N/NC(=O)C2CCC(=O)N2)N1 (stereo not given)
inactive: dose: 5.0 mg/kg/injection, schedule: Q01DX009 (ip), vehicle: saline with Tween-80 101 % of control | dose: 10.0 mg/kg/injection, schedule: Q01DX009 (ip), vehicle: saline with Tween-80 103 % of control | dose: 20.0 mg/kg/injection, schedule: Q01DX009 (ip), vehicle: saline with Tween-80 103 % of control

N=C(N)n1cc(/C=N/N=C(N)N)cn1
inactive: [1] 102 % of control | [2] 103 % of control

CCC(c1ccc(OC(=O)Cc2ccc(N(CCCl)CCCl)cc2)cc1)C(CC)c1ccc(OC(=O)Cc2ccc(N(CCCl)CCCl)cc2)cc1 (stereo not given)
inactive: dose: 80.0 mg/kg/injection, schedule: Q01DX009 (ip), vehicle: saline with Tween-80 92 % of control | dose: 120.0 mg/kg/injection, schedule: Q01DX009 (ip), vehicle: saline with Tween-80 93 % of control | dose: 180.0 mg/kg/injection, schedule: Q01DX009 (ip), vehicle: saline with Tween-80 89 % of control | dose: 270.0 mg/kg/injection, schedule: Q01DX009 (ip), vehicle: saline with Tween-80 90 % of control | dose: 405.0 mg/kg/injection, schedule: Q01DX009 (ip), vehicle: saline with Tween-80 92 % of control

COC1/C=C/OC2(C)Oc3c(C)c(O)c4c(c3C2=O)C(=O)C([N+](=O)[O-])=C(NC(=O)C(C)=C/C=C\C(C)C(O)C(C)C(O)C(C)C(OC(C)=O)C1C)C4=O (stereo not given)
inactive: [11] 90 % of control | dose: 200.0 mg/kg/injection, schedule: Q01DX009 (ip), vehicle: Klucel (hydroxypropylcellulose) (HPC) 98 % of control

CCC(=O)Nc1ccc(N)cc1
inactive: [7] 98 % of control | [8] 97 % of control

CN1C(=O)N(C)N(Cc2ccccc2)C(=O)N1Cc1ccccc1
inactive: dose: 60.0 mg/kg/injection, schedule: Q01DX005 (ip), vehicle: Klucel (hydroxypropylcellulose) (HPC) 97 % of control | dose: 120.0 mg/kg/injection, schedule: Q01DX005 (ip), vehicle: Klucel (hydroxypropylcellulose) (HPC) 100 % of control | dose: 240.0 mg/kg/injection, schedule: Q01DX005 (ip), vehicle: Klucel (hydroxypropylcellulose) (HPC) 96 % of control

Cc1cc2nc3[nH]c4ccccc4c3nc2cc1C
inactive: dose: 25.0 mg/kg/injection, schedule: Q01DX009 (ip), vehicle: suspension in saline 94 % of control | dose: 50.0 mg/kg/injection, schedule: Q01DX009 (ip), vehicle: suspension in saline 92 % of control | dose: 100.0 mg/kg/injection, schedule: Q01DX009 (ip), vehicle: suspension in saline 94 % of control | dose: 200.0 mg/kg/injection, schedule: Q01DX009 (ip), vehicle: suspension in saline 92 % of control

CCCCCN(CCCCC)CC(O)CN1CCCc2ccccc21 (stereo not given)
inactive: [9] 102 % of control | [10] 111 % of control | [12] 112 % of control

C=C(N)/C=C1/NC(C)=CS1
inactive: dose: 15.0 mg/kg/injection, schedule: Q01DX005 (ip), vehicle: saline 96 % of control | dose: 30.0 mg/kg/injection, schedule: Q01DX005 (ip), vehicle: saline 96 % of control | [13] 91 % of control and 94 % of control

CN1C(=O)c2ccccc2NC12CCN(Cc1ccccc1)CC2
inactive: dose: 25.0 mg/kg/injection, schedule: Q01DX005 (ip), vehicle: Klucel (hydroxypropylcellulose) (HPC) 103 % of control | dose: 50.0 mg/kg/injection, schedule: Q01DX005 (ip), vehicle: Klucel (hydroxypropylcellulose) (HPC) 95 % of control | dose: 100.0 mg/kg/injection, schedule: Q01DX005 (ip), vehicle: Klucel (hydroxypropylcellulose) (HPC) 97 % of control

COCC1OCCCO1
inactive: [13] 102 % of control | dose: 120.0 mg/kg/injection, schedule: Q01DX005 (ip), vehicle: saline 98 % of control | dose: 240.0 mg/kg/injection, schedule: Q01DX005 (ip), vehicle: saline 97 % of control

Fc1ccc(N2C(Cl)(Cl)C23c2ccccc2-c2ccccc23)cc1
inactive: dose: 12.5 mg/kg/injection, schedule: Q01DX009 (ip), vehicle: saline with Tween-80 104 % of control | dose: 25.0 mg/kg/injection, schedule: Q01DX009 (ip), vehicle: saline with Tween-80 103 % of control | [3] 94 % of control | [4] 103 % of control | [5] 112 % of control

COc1cc2c(cc1OC)C1CC(=O)CCN1CC2 (stereo not given)
inactive: dose: 12.5 mg/kg/injection, schedule: Q01DX009 (ip), vehicle: Klucel (hydroxypropylcellulose) (HPC) 111 % of control | dose: 25.0 mg/kg/injection, schedule: Q01DX009 (ip), vehicle: Klucel (hydroxypropylcellulose) (HPC) 106 % of control | dose: 50.0 mg/kg/injection, schedule: Q01DX009 (ip), vehicle: Klucel (hydroxypropylcellulose) (HPC) 101 % of control | [11] 107 % of control

CN(C)C(=O)c1cccc(COc2ccc([N+](=O)[O-])cc2Cl)c1
inactive: [3] 110 % of control | [4] 110 % of control

O=c1ccc2c(O)c3ccoc3cc2o1
inactive: dose: 100.0 mg/kg/injection, schedule: Q01DX001 (ip), vehicle: Klucel (hydroxypropylcellulose) (HPC) 101 % of control | dose: 200.0 mg/kg/injection, schedule: Q01DX001 (ip), vehicle: Klucel (hydroxypropylcellulose) (HPC) 111 % of control | dose: 400.0 mg/kg/injection, schedule: Q01DX001 (ip), vehicle: Klucel (hydroxypropylcellulose) (HPC) 106 % of control

Cc1cc(C)n(-c2ccccc2-[n+]2noc([O-])c2C)n1
inactive: [9] 97 % of control | [10] 95 % of control | [12] 95 % of control

O=NNc1ccc(Sc2ccc3ccccc3c2)cn1
inactive: dose: 3.12 mg/kg/injection, schedule: Q01DX009 (ip), vehicle: saline 114 % of control and 122 % of control | dose: 6.25 mg/kg/injection, schedule: Q01DX009 (ip), vehicle: saline 120 % of control | dose: 12.5 mg/kg/injection, schedule: Q01DX009 (ip), vehicle: saline 114 % of control

FC(F)(F)c1ccccc1NC(=S)Nc1ccc(I)cc1
inactive: dose: 50.0 mg/kg/injection, schedule: Q01DX009 (ip), vehicle: gum acacia 92 % of control | dose: 100.0 mg/kg/injection, schedule: Q01DX009 (ip), vehicle: gum acacia 92 % of control | dose: 200.0 mg/kg/injection, schedule: Q01DX009 (ip), vehicle: gum acacia 89 % of control

CC(=O)c1ccc2c(c1)[nH]c1ccccc12
inactive: [4] 86 % of control | [5] 90 % of control | [6] 90 % of control
